Results: US8445510B2, “Fused bicyclic kinase inhibitors” (OSI Pharmaceuticals, LLC, priority 2011, dated 2013)
pIC50: −log10 of the molar value.

Experiments:
[1] = system: MKN45 cells; test: MKN45 cell proliferation assay (CellTiter-Glo); format: cell-based; settings: Homo sapiens, MKN-45, 72 h; MKN45 cell line; 3 days incubation; at least duplicate experiments; read-out: Prolif. IC50
[2] = biological target: T1, Aurora B (Homo sapiens, UniProt Q96GD4); test: Aurora B cell mechanistic assay (HT-29), phospho-Histone H3 (Ser10) ELISA; format: cell-based; settings: HT-29 cell line; inhibition of phospho-Histone H3 (Ser10); at least duplicate experiments (italicized if single experiment); read-out: Aurora B mech IC50
T1 construct: HT-29 cells grown in complete growth media
T1 sequence (Q96GD4 whole entry): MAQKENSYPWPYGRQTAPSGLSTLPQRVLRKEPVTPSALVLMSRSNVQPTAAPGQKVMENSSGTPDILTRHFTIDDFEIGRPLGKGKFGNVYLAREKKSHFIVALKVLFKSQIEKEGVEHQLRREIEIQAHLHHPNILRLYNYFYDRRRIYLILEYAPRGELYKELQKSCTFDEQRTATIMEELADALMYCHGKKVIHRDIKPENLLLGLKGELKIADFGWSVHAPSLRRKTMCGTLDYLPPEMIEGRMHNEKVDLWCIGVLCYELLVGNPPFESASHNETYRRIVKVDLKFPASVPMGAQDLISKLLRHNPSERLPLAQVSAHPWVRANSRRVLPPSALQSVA
Procedure, shortened: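 HT-29 cells treated 1 h at 37 °C with serially diluted compound, then 100 nM Calyculin A added for 30 min. Lysates assayed by phospho-Histone H3 (Ser10) ELISA at 450 nm; normalized to DMSO (100%) and a reference Aurora B inhibitor (full inhibition); IC50 by four-parameter fit.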

Row | pIC50 [1] | pIC50 [2] | Structure (SMILES)
1 | ≥ 7.30 | 6.00 to 6.70 | Cc1c(-c2cnc3[nH]cc([C@H](C)c4c(OC(F)F)ccc(F)c4Cl)c3c2)cnn1[C@H]1CC[C@H](C(N)=O)CC1 [Example 76, trans-4-[4-(3-{(1S)-1-[2-Chloro-6-(difluoromethoxy)-3-fluorophenyl]ethyl}-1H-pyrrolo[2,3-b]pyridin-5-yl)-5-methyl-1H-pyrazol-1-yl]cyclohexanecarboxamide]
2 | 6.70 to 7.30 | < 6.00 | Cc1c(-c2cnc3[nH]cc(C(C#N)c4c(Cl)ccc(F)c4Cl)c3c2)cnn1[C@H]1CC[C@H](O)CC1 (stereo partly drawn) [Example 108, (2,6-Dichloro-3-fluorophenyl){5-[1-(trans-4-hydroxycyclohexyl)-5-methyl-1H-pyrazol-4-yl]-1H-pyrrolo[2,3-b]pyridin-3-yl}acetonitrile]
3 | ≥ 7.30 | 6.70 to 7.30 | COc1ccc(F)c(Cl)c1[C@@H](C)c1c[nH]c2ncc(-c3cn([C@H]4CC[C@H](C(N)=O)CC4)nc3C)cc12 [Example 19, trans-4-(4-{3-[(1S)-1-(2-Chloro-3-fluoro-6-methoxyphenyl)ethyl]-1H-pyrrolo[2,3-b]pyridin-5-yl}-3-methyl-1H-pyrazol-1-yl)cyclohexanecarboxamide]
4 | ≥ 7.30 | < 6.00 | COc1ccc(F)c(Cl)c1[C@@H](C)c1c[nH]c2ncc(-c3c(C)nn([C@H]4CC[C@H](O)CC4)c3C)cc12 [Example 6, trans-4-(4-{3-[(1S)-1-(2-Chloro-3-fluoro-6-methoxyphenyl)ethyl]-1H-pyrrolo[2,3-b]pyridin-5-yl}-3,5-dimethyl-1H-pyrazol-1-yl)cyclohexanol]
5 | ≥ 7.30 | 6.70 to 7.30 | Cc1c(-c2cnc3[nH]cc([C@H](C)c4c(OCC(F)(F)F)ccc(F)c4Cl)c3c2)cnn1[C@H]1CC[C@H](O)CC1 [Example 105, trans-4-[4-(3-{(1S)-1-[2-Chloro-3-fluoro-6-(2,2,2-trifluoroethoxy)-phenyl]ethyl}-1H-pyrrolo[2,3-b]pyridin-5-yl)-5-methyl-1H-pyrazol-1-yl]cyclohexanol]
6 | ≥ 7.30 | 6.00 to 6.70 | CCc1nn([C@H]2CC[C@H](O)CC2)cc1-c1cnc2[nH]cc([C@H](C)c3c(OC(F)F)ccc(F)c3Cl)c2c1 [Example 77, trans-4-[4-(3-{(1S)-1-[2-Chloro-6-(difluoromethoxy)-3-fluorophenyl]ethyl}-1H-pyrrolo[2,3-b]pyridin-5-yl)-3-ethyl-1H-pyrazol-1-yl]cyclohexanol]
7 | ≥ 7.30 | 6.00 to 6.70 | CNC(=O)[C@H]1CC[C@H](n2ncc(-c3cnc4[nH]cc([C@H](C)c5c(OC)ccc(F)c5Cl)c4c3)c2C)CC1 [Example 17, trans-4-(4-{3-[(1S)-1-(2-Chloro-3-fluoro-6-methoxyphenyl)ethyl]-1H-pyrrolo[2,3-b]pyridin-5-yl}-5-methyl-1H-pyrazol-1-yl)-N-methyl cyclohexanecarboxamide]
8 | ≥ 7.30 | 6.00 to 6.70 | COc1ccc(F)c(Cl)c1[C@@H](C)c1c[nH]c2ncc(-c3cnn([C@H]4CC[C@@H](N(C)C)CC4)c3C)cc12 [Example 54, cis-4-(4-{3-[(1S)-1-(2-Chloro-3-fluoro-6-methoxyphenyl)ethyl]-1H-pyrrolo[2,3-b]pyridin-5-yl}-5-methyl-1H-pyrazol-1-yl)-N,N-dimethylcyclohexanamine]
9 | ≥ 7.30 | 6.00 to 6.70 | Cc1c(-c2cnc3[nH]cc([C@H](C)c4c(OC(F)F)ccc(F)c4Cl)c3c2)cnn1[C@H]1CC[C@H](O)CC1 [Example 74, trans-4-[4-(3-{(1S)-1-[2-Chloro-6-(difluoromethoxy)-3-fluorophenyl]ethyl}-1H-pyrrolo[2,3-b]pyridin-5-yl)-5-methyl-1H-pyrazol-1-yl]cyclohexanol]
10 | 6.70 to 7.30 | < 6.00 | COc1ccc(F)c(Cl)c1[C@@H](C)c1c[nH]c2ncc(-c3cnc(C)n3C)cc12 [Example 65, 3-[(1S)-1-(2-chloro-3-fluoro-6-methoxyphenyl)ethyl]-5-(1,2-dimethyl-1H-imidazol-5-yl)-1H-pyrrolo[2,3-b]pyridine]
11 | ≥ 7.30 | < 6.00 | [2H][C@@](C)(c1c(OC)ccc(F)c1Cl)c1c[nH]c2ncc(-c3cnn([C@H]4CC[C@H](O)CC4)c3C)cc12 [Example 110, trans-4-(4-{3-[(1S)-1-(2-Chloro-3-fluoro-6-methoxyphenyl)(1-^2H)ethyl]-1H-pyrrolo[2,3-b]pyridin-5-yl}-5-methyl-1H-pyrazol-1-yl)cyclohexanol]
12 | 6.70 to 7.30 | 6.70 to 7.30 | COc1ccc(F)c(Cl)c1[C@@H](C)c1c[nH]c2ncc(-c3cn(C)nc3C)cc12 [Example 2, 3-[(1S)-1-(2-Chloro-3-fluoro-6-methoxyphenyl)ethyl]-5-(1,3-dimethyl-1H-pyrazol-4-yl)-1H-pyrrolo[2,3-b]pyridine]
13 | ≥ 7.30 | 6.00 to 6.70 | COc1ccc(F)c(Cl)c1[C@@H](C)c1c[nH]c2ncc(-c3cnn([C@H]4CC[C@H](C(N)=O)CC4)c3C)cc12 [Example 18, trans-4-(4-{3-[(1S)-1-(2-chloro-3-fluoro-6-methoxyphenyl)ethyl]-1H-pyrrolo[2,3-b]pyridin-5-yl}-5-methyl-1H-pyrazol-1-yl)cyclohexanecarboxamide]
14 | ≥ 7.30 | < 6.00 | CCOc1ccc(F)c(Cl)c1[C@@H](C)c1c[nH]c2ncc(-c3cnn([C@H]4CC[C@H](O)CC4)c3C)cc12 [Example 103, trans-4-(4-{3-[(1S)-1-(2-Chloro-6-ethoxy-3-fluorophenyl)ethyl]-1H-pyrrolo[2,3-b]pyridin-5-yl}-5-methyl-1H-pyrazol-1-yl)cyclohexanol]
15 | ≥ 7.30 | < 6.00 | COc1ccc(F)c(Cl)c1[C@@H](C)c1c[nH]c2ncc(-c3cnn(C)c3C)cc12 [Example 3, 3-[(1S)-1-(2-Chloro-3-fluoro-6-methoxyphenyl)ethyl]-5-(1,5-dimethyl-1H-pyrazol-4-yl)-1H-pyrrolo[2,3-b]pyridine]
16 | 6.70 to 7.30 | 6.00 to 6.70 | COc1ccc(F)c(Cl)c1[C@@H](C)c1c[nH]c2ncc(-c3cn(C)nc3CO)cc12 [Example 42, (4-{3-[(1S)-1-(2-Chloro-3-fluoro-6-methoxyphenyl)ethyl]-1H-pyrrolo[2,3-b]pyridin-5-yl}-1-methyl-1H-pyrazol-3-yl)methanol]
17 | ≥ 7.30 | < 6.00 | COc1ccc(F)c(Cl)c1[C@@H](C)c1c[nH]c2ncc(-c3cn(C)nc3OC)cc12 [Example 61, 3-[(1S)-1-(2-Chloro-3-fluoro-6-methoxyphenyl)ethyl]-5-(3-methoxy-1-methyl-1H-pyrazol-4-yl)-1H-pyrrolo[2,3-b]pyridine]
18 | 6.70 to 7.30 | < 6.00 | COc1ccc(F)c(Cl)c1[C@@H](C)c1c[nH]c2ncc(-c3cnn(C)c3OC)cc12 [Example 62, 3-[(1S)-1-(2-chloro-3-fluoro-6-methoxyphenyl)ethyl]-5-(5-methoxy-1-methyl-1H-pyrazol-4-yl)-1H-pyrrolo[2,3-b]pyridine]
19 | ≥ 7.30 | < 6.00 | [2H]C([2H])([2H])Oc1ccc(F)c(Cl)c1[C@@H](C)c1c[nH]c2ncc(-c3cnn([C@H]4CC[C@H](O)CC4)c3C)cc12 [Example 107, trans-4-(4-{3-[(1S)-1-{2-Chloro-3-fluoro-6-[(^2H3)methyloxy]phenyl}ethyl]-1H-pyrrolo[2,3-b]pyridin-5-yl}-5-methyl-1H-pyrazol-1-yl)cyclohexanol]
20 | 6.70 to 7.30 | < 6.00 | COc1ccc(F)c(Cl)c1[C@@H](C)c1c[nH]c2ncc(-c3cnn(C)c3CO)cc12 [Example 44, (4-{3-[(1S)-1-(2-Chloro-3-fluoro-6-methoxyphenyl)ethyl]-1H-pyrrolo[2,3-b]pyridin-5-yl}-1-methyl-1H-pyrazol-5-yl)methanol]
21 | ≥ 7.30 | < 6.00 | CCc1c(-c2cnc3[nH]cc([C@H](C)c4c(OC)ccc(F)c4Cl)c3c2)cnn1[C@H]1CC[C@H](O)CC1 [Example 48, trans-4-(4-{3-[(1S)-1-(2-Chloro-3-fluoro-6-methoxyphenyl)ethyl]-1H-pyrrolo[2,3-b]pyridin-5-yl}-5-ethyl-1H-pyrazol-1-yl)cyclohexanol]
22 | ≥ 7.30 | 6.00 to 6.70 | COc1ccc(F)c(Cl)c1[C@@H](C)c1c[nH]c2ncc(-c3c[nH]nc3C)cc12 [Example 1, 3-[(1S)-1-(2-Chloro-3-fluoro-6-methoxyphenyl)ethyl]-5-(3-methyl-1H-pyrazol-4-yl)-1H-pyrrolo[2,3-b]pyridine]
23 | ≥ 7.30 | < 6.00 | COc1ccc(F)c(Cl)c1[C@@H](C)c1c[nH]c2ncc(-c3c(C)nn([C@@H]4C[C@@H](O)[C@@H](O)C4)c3C)cc12 [Example 33, (1R,2S,4S)-4-(4-{3-[(1S)-1-(2-Chloro-3-fluoro-6-methoxyphenyl)ethyl]-1H-pyrrolo[2,3-b]pyridin-5-yl}-3,5-dimethyl-1H-pyrazol-1-yl)cyclopentane-1,2-diol]
24 | ≥ 7.30 | < 6.00 | Cc1c(-c2cnc3[nH]cc([C@H](C)c4c(OC(F)F)ccc(F)c4Cl)c3c2)cnn1[C@H]1C[C@@](C)(O)C1 [Example 79, cis-3-[4-(3-{(1S)-1-[2-Chloro-6-(difluoromethoxy)-3-fluorophenyl]ethyl}-1H-pyrrolo[2,3-b]pyridin-5-yl)-5-methyl-1H-pyrazol-1-yl]-1-methylcyclobutanol]
25 | 6.70 to 7.30 | < 6.00 | COc1ccc(F)c(Cl)c1[C@@H](C)c1c[nH]c2ncc(-c3c(CO)nn(C)c3C)cc12 [Example 51, (4-{3-[(1S)-1-(2-Chloro-3-fluoro-6-methoxyphenyl)ethyl]-1H-pyrrolo[2,3-b]pyridin-5-yl}-1,5-dimethyl-1H-pyrazol-3-yl)methanol]
26 | ≥ 7.30 | 6.00 to 6.70 | COc1ccc(F)c(Cl)c1[C@@H](C)c1c[nH]c2ncc(-c3cnn(C[C@H](O)CO)c3C)cc12 [Example 10, (2S)-3-(4-{3-[(1S)-1-(2-Chloro-3-fluoro-6-methoxyphenyl)ethyl]-1H-pyrrolo[2,3-b]pyridin-5-yl}-5-methyl-1H-pyrazol-1-yl)propane-1,2-diol]
